Molecules are shown by their SMILES. Where “and” joins values, the source holds several entries; their conditions need not be identical. Equal values may be shown once.

The record followed here is patent US9458133B2, “Isoquinolines as potassium ion channel inhibitors” (BRISTOL-MYERS SQUIBB COMPANY, priority 2013, dated 2016).

The target in one experiment is T1, human Kv 1.5 (Homo sapiens, UniProt P22460).
T1 construct: expressed in transfected cells; host or cells: mouse L-929 fibroblasts stably expressing human Kv1.5
T1 sequence (P22460 whole entry): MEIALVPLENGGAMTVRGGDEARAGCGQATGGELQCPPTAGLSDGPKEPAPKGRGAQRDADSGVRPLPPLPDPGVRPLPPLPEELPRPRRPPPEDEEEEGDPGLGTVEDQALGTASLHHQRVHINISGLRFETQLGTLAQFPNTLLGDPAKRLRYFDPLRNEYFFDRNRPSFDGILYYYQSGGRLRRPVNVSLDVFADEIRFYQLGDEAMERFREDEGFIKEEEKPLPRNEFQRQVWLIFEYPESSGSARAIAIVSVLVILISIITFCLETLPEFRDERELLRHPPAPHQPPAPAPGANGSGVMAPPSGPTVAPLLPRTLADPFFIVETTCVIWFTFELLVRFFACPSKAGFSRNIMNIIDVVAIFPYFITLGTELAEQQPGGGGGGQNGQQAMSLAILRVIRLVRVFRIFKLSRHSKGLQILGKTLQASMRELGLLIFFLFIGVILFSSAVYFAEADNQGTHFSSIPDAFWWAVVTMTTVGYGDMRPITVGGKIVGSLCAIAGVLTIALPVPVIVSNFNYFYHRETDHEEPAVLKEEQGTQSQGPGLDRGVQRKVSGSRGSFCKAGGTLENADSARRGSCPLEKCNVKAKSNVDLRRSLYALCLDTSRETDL
Kind of experiment: Block of IKur current in patch clamped L-929 cells stably expressing human Kv1.5. It is filed as cell-based. The following applies: 0.3 μM; patch clamped mammalian L-929 cells expressing human Kv1.5 (IKur). An excerpt: Synders, D. J. et al., “A rapidly activating and slowly inactivating potassium channel cloned from human heart: functional analysis after stable mammalian cell culture expression”, J. Gen. Physiol., 101:513-543 (1993). […]
Regarding `NC(=O)c1cncc(-c2cc3cccc(-c4ccccc4)c3c(NCc3ccccn3)n2)c1` [Example 9, 5-(8-Phenyl-1-((pyridin-2-ylmethyl)amino)isoquinolin-3-yl)nicotinamide], the “KV1_5% Inh L929 @0.3 μM” value is 81.32% and 50.45%.

The same experiment, now with this note: L929, 0.3 μM; patch clamped mammalian L-929 cells expressing human Kv1.5 (IKur); read-out: KV1_5% Inh L929 @0.3 μM.
Consider `NS(=O)(=O)c1cncc(-c2cc3cccc(-c4ccccc4)c3c(NCc3ccccc3Cl)n2)c1` [Example 37, 5-(1-(2-chlorobenzylamino)-8-phenylisoquinolin-3-yl)pyridine-3-sulfonamide], for which the inhibition at 0.3 µM came to 34.2%.

As for `c1ccc(CNc2ncc(-c3cncc(-c4nn[nH]n4)c3)c3cccc(-c4ccccc4)c23)cc1` [Example 19, 4-(5-(2H-Tetrazol-5-yl)pyridin-3-yl)-N-benzyl-8-phenylisoquinolin-1-amine], the inhibition at 0.3 µM came to 90%.

For the compound `NC(=O)c1cccc(-c2c(Cl)nc(NCc3ccccn3)c3c(-c4ccccc4)cccc23)c1` [Example 66, 3-(3-chloro-8-phenyl-1-(pyridin-2-ylmethylamino)isoquinolin-4-yl)benzamide], the inhibition at 0.3 µM was determined as 99.3%.

For `NS(=O)(=O)c1cncc(-c2c(Cl)nc(NCC3CCOCC3)c3c(-c4ccccc4)cccc23)c1` [Example 29, 5-(3-chloro-8-phenyl-1-((tetrahydro-2H-pyran-4-yl)methylamino)isoquinolin-4-yl)pyridine-3-sulfonamide], the inhibition at 0.3 µM was 88.4%.

Consider `CC(=O)Nc1ccc(-c2cc3cccc(-c4ccccc4)c3c(NCc3ccccn3)n2)cc1` [Example 31, N-(4-(8-phenyl-1-(pyridin-2-ylmethylamino)isoquinolin-3-yl)phenyl)acetamide], for which the inhibition at 0.3 µM was 15.2%.

On to `NC(=O)Nc1cccc(-c2cc3cccc(-c4ccccc4)c3c(NCc3ccccn3)n2)c1` [Example 38, 1-(3-(8-phenyl-1-(pyridin-2-ylmethylamino)isoquinolin-3-yl)phenyl)urea], for which the inhibition at 0.3 µM is 90.8%.

`CC(=O)Nc1ccc(-c2cc3cccc(-c4ccccc4)c3c(NCc3ccccn3)n2)cn1` [Example 64, N-(5-(8-phenyl-1-(pyridin-2-ylmethylamino)isoquinolin-3-yl)pyridin-2-yl)acetamide]: the inhibition at 0.3 µM worked out at 57.5%.

With `N#Cc1nc(NCc2ccccc2)c2c(-c3ccccc3)cccc2c1-c1cncc(S(N)(=O)=O)c1` [Example 16, 5-(1-(Benzylamino)-3-cyano-8-phenylisoquinolin-4-yl)pyridine-3-sulfonamide], the inhibition at 0.3 µM was 88.6%.

For the compound `NS(=O)(=O)c1cccc(-c2c(Cl)nc(NCc3ccccn3)c3c(-c4ccccc4)cccc23)c1` [Example 84, 3-(3-chloro-8-phenyl-1-(pyridin-2-ylmethylamino)isoquinolin-4-yl)benzenesulfonamide], the inhibition at 0.3 µM was determined as 98.4%.

In the case of `O=C(Nc1cccc(-c2cc3cccc(-c4ccccc4)c3c(NCc3ccccn3)n2)c1)N1CCOCC1` [Example 6, N-(3-(8-Phenyl-1-(pyridin-2-ylmethylamino)isoquinolin-3-yl)phenyl)morpholine-4-carboxamide], the inhibition at 0.3 µM was determined as 92.2%.

As to `NS(=O)(=O)c1cccc(-c2cnc(NCc3ccccn3)c3c(-c4ccccc4)cccc23)c1` [Example 85, 3-(8-phenyl-1-(pyridin-2-ylmethylamino)isoquinolin-4-yl)benzenesulfonamide], the inhibition at 0.3 µM is 99%.

In the case of `NS(=O)(=O)c1cncc(-c2c(Cl)nc(NCc3c(F)cccc3F)c3c(-c4ccccc4)cccc23)c1` [Example 27, 5-(3-chloro-1-(2,6-difluorobenzylamino)-8-phenylisoquinolin-4-yl)pyridine-3-sulfonamide], the inhibition at 0.3 µM was determined as 93.6%.

Turning to `CC(=O)Nc1ccccc1-c1cc2cccc(-c3ccccc3)c2c(NCc2ccccn2)n1` [Example 30, N-(2-(8-phenyl-1-(pyridin-2-ylmethylamino)isoquinolin-3-yl)phenyl)acetamide], the inhibition at 0.3 µM is 51.3%.

`NC(=O)c1ccc(-c2c(Cl)nc(NCc3ccccn3)c3c(-c4ccccc4)cccc23)cc1` [Example 57, 4-(3-chloro-8-phenyl-1-(pyridin-2-ylmethylamino)isoquinolin-4-yl)benzamide]: the inhibition at 0.3 µM amounted to 98.6%.

Take `CC(C)CCNc1nc(-c2cncc(S(N)(=O)=O)c2)cc2cccc(-c3ccccc3)c12` [Example 25, 5-(1-(isopentylamino)-8-phenylisoquinolin-3-yl)pyridine-3-sulfonamide]: the inhibition at 0.3 µM turned out to be 53.2%.

Turning to `CC(Nc1nc(Cl)c(-c2cncc(S(N)(=O)=O)c2)c2cccc(-c3ccccc3)c12)c1ccccn1` (stereo not shown) [Example 26, 5-(3-chloro-8-phenyl-1-(1-(pyridin-2-yl)ethylamino)isoquinolin-4-yl)pyridine-3-sulfonamide], the inhibition at 0.3 µM was 98.8%.

Regarding `NC(=O)CC(=O)Nc1cccc(-c2c(Cl)nc(NCc3ccccn3)c3c(-c4ccccc4)cccc23)c1` [Example 13, N1-(3-(3-Chloro-8-phenyl-1-(pyridin-2-ylmethylamino)isoquinolin-4-yl)phenyl)malonamide], the inhibition at 0.3 µM was 97.7%.

In the case of `NC(=O)Nc1cncc(-c2cc3cccc(-c4ccccc4)c3c(NCc3ccccn3)n2)c1` [Example 4, 1-(5-(8-Phenyl-1-(pyridin-2-ylmethylamino)isoquinolin-3-yl)pyridin-3-yl)urea], the inhibition at 0.3 µM was found to be 88.7%.

In the case of `NS(=O)(=O)c1cccc(-c2c(Cl)nc(NCc3ccccc3)c3c(-c4ccccc4)cccc23)c1` [Example 78, 3-(1-(benzylamino)-3-chloro-8-phenylisoquinolin-4-yl)benzenesulfonamide], the inhibition at 0.3 µM stood at 91%.

As for `NS(=O)(=O)c1cncc(-c2cc3cccc(-c4ccccc4)c3c(N[C@H]3CCN(Cc4ccccc4)C3)n2)c1` [Example 71, (S)-5-(1-(1-benzylpyrrolidin-3-ylamino)-8-phenylisoquinolin-3-yl)pyridine-3-sulfonamide], the inhibition at 0.3 µM worked out at 67.7%.

For `NS(=O)(=O)Nc1ccccc1-c1cc2cccc(-c3ccccc3)c2c(NCc2ccccn2)n1` [Example 51], the inhibition at 0.3 µM is 86.3%.

Regarding `c1ccc(-c2cccc3cc(-c4cc[nH]n4)nc(NCc4ccccn4)c23)cc1` [Example 23, 8-phenyl-3-(1H-pyrazol-3-yl)-N-(pyridin-2-ylmethyl)isoquinolin-1-amine], the inhibition at 0.3 µM is 80.2%.

Take `COc1ccc(-c2cc3cccc(-c4ccccc4)c3c(NCc3ccccn3)n2)cn1` [Example 67, 3-(6-methoxypyridin-3-yl)-8-phenyl-N-(pyridin-2-ylmethyl)isoquinolin-1-amine]: the inhibition at 0.3 µM was found to be 96.9%.

As for `NS(=O)(=O)c1cncc(-c2cnc(NCc3ccccn3)c3c(-c4ccccc4)cccc23)c1` [Example 11, 5-(8-Phenyl-1-(pyridin-2-ylmethylamino)isoquinolin-4-yl)pyridine-3-sulfonamide], the inhibition at 0.3 µM worked out at 98.9%.

Take `Clc1nc(NCc2ccccc2)c2c(-c3ccccc3)cccc2c1C1=CCOCC1` [Example 83, N-benzyl-3-chloro-4-(3,6-dihydro-2H-pyran-4-yl)-8-phenylisoquinolin-1-amine]: the inhibition at 0.3 µM stood at 19.3%.

As for `Nc1cncc(-c2cc3cccc(-c4ccccc4)c3c(NCc3ccccn3)n2)c1` [Example 2, 3-(5-Aminopyridin-3-yl)-8-phenyl-N-(pyridin-2-ylmethyl)isoquinolin-1-amine], the inhibition at 0.3 µM is 66.2%.

With `CS(=O)(=O)Nc1cccc(-c2cc3cccc(-c4ccccc4)c3c(NCc3ccccn3)n2)c1` [Example 35, N-(3-(8-phenyl-1-(pyridin-2-ylmethylamino)isoquinolin-3-yl)phenyl)methanesulfonamide], the inhibition at 0.3 µM was 36.2%.

Regarding `Cc1nc(NCc2ccccc2)c2c(-c3ccccc3)cccc2c1-c1cncc(S(N)(=O)=O)c1` [Example 14, 5-(1-(Benzylamino)-3-methyl-8-phenylisoquinolin-4-yl)pyridine-3-sulfonamide], the inhibition at 0.3 µM turned out to be 93.2%.

In the case of `NC(=O)c1ccc(-c2cc3cccc(-c4ccccc4)c3c(NCc3ccccn3)n2)cc1` [Example 42, 4-(8-phenyl-1-(pyridin-2-ylmethylamino)isoquinolin-3-yl)benzamide], the inhibition at 0.3 µM was 60.3%.

Regarding `NS(=O)(=O)c1cncc(-c2cc3cccc(-c4ccccc4)c3c(NCc3ncccc3F)n2)c1` [Example 22, 5-(1-((3-fluoropyridin-2-yl)methylamino)-8-phenylisoquinolin-3-yl)pyridine-3-sulfonamide], the inhibition at 0.3 µM is 94%.

In the case of `CC(=O)Nc1cncc(-c2cc3cccc(-c4ccccc4)c3c(NCc3ccccn3)n2)c1` [Example 3, N-(5-(8-Phenyl-1-(pyridin-2-ylmethylamino)isoquinolin-3-yl)pyridin-3-yl)acetamide], the inhibition at 0.3 µM is 71.9%.

Take `NC(=O)c1cccc(-c2cc3cccc(-c4ccccc4)c3c(NCc3ccccn3)n2)c1` [Example 41, 3-(8-phenyl-1-(pyridin-2-ylmethylamino)isoquinolin-3-yl)benzamide]: the inhibition at 0.3 µM turned out to be 54.1%.

On to `NS(=O)(=O)Nc1cncc(-c2cc3cccc(-c4ccccc4)c3c(NCc3ccccn3)n2)c1` [Example 5], for which the inhibition at 0.3 µM is 75.6%.

In the case of `NS(=O)(=O)c1ccccc1-c1cc2cccc(-c3ccccc3)c2c(NCc2ccccn2)n1` [Example 65, 2-(8-phenyl-1-(pyridin-2-ylmethylamino)isoquinolin-3-yl)benzenesulfonamide], the inhibition at 0.3 µM worked out at 50.5%.

For the compound `Cc1n[nH]c(C)c1-c1cc2cccc(-c3ccccc3)c2c(NCc2ccccn2)n1` [Example 20, 3-(3,5-dimethyl-1H-pyrazol-4-yl)-8-phenyl-N-(pyridin-2-ylmethyl)isoquinolin-1-amine], the inhibition at 0.3 µM is 64.5%.

For the compound `Nc1ccc(-c2c(Cl)nc(NCc3ccccn3)c3c(-c4ccccc4)cccc23)cn1` [Example 77, 4-(6-aminopyridin-3-yl)-3-chloro-8-phenyl-N-(pyridin-2-ylmethyl)isoquinolin-1-amine], the inhibition at 0.3 µM was found to be 99%.
